In patent publication US11299510B2, “Substituted pyridopyrrolopyrimidine ribonucleosides for therapeutic uses” (USTAV ORGANICKE CHEMIE A BIOCHEMIE AV CR, V.V.I., priority 2018, dated 2022):

Key:
Assay type in all cases: cell-based
[1] = system: A549 (human lung adenocarcinoma); test: cytotoxic MTS test, A549; conditions: A549 cells
Text: (§1) To evaluate the antitumor activity of newly prepared compounds for in vitro conditions, we used cytotoxic MTS test (Nosková V. et al., Neoplasma 2002, 49, 418-425) on cell lines derived from normal tissues or tumors. Specifically, cell lines K562 (human acute myeloid leukemia); K562-Tax (human acute myeloid leukemia, paclitaxel resistant subline, overexpress multiple drug resistant protein PgP); CEM (T-lymfoblastic leukemia); CEM-DNR-bulk (T-lymfoblastic leukemia, doxorubicin resistant); A549 (human lung adenocarcinoma); HCT116p53 wt (human colorectal cancer, wild-type); HCT116p53−/−(human colorectal cancer, mutant p53) a U2OS (human bone osteosarcoma) were used. Express characteristics, susceptibility profiles of classic antitumor drugs as well as methodology of cytotoxic MTS test have been repeatedly published (Denizot, F.; Lang, R., J. Immunol. Meth. 1986, 89, 271-277; Noskova, V., see above; Šarek J. et al., J, Med. Chem., 2003, 46, 5402-5415).

[2] = system: BJ (normal human fibroblasts); test: cytotoxic MTS test, BJ; conditions: BJ cells
[3] = system: CCRF-CEM; test: cytotoxic MTS test, CCRF-CEM; conditions: Homo sapiens; CCRF-CEM cells
Text: as §1

[4] = system: CEM-DNR-bulk (T-lymfoblastic leukemia, doxorubicin resistant); test: cytotoxic MTS test, CEM-DNR; conditions: Homo sapiens; CEM-DNR cells
Text: as §1

[5] = system: HCT116p53 wt (human colorectal cancer, wild-type); test: cytotoxic MTS test, HCT116; conditions: HCT-116, HCT116 cells
Text: as §1

[6] = system: HCT116p53−/− (human colorectal cancer, mutant p53); test: cytotoxic MTS test, HCT116p53; conditions: HCT116p53 cells
Text: as §1

[7] = system: K562 (human acute myeloid leukemia); test: cytotoxic MTS test, K562; conditions: K562 cells
Text: as §1

[8] = system: K562-Tax (human acute myeloid leukemia, paclitaxel resistant subline); test: cytotoxic MTS test, K562-TAX; conditions: K562-TAX cells
Text: as §1

[9] = system: MRC-5 (normal human fibroblasts); test: cytotoxic MTS test, MRC-5; conditions: MRC5, MRC-5 cells
[10] = system: U2OS (human bone osteosarcoma); test: cytotoxic MTS test, U2OS; conditions: U2OS cells
Text: as §1

[11] = system: Hep G2; test: cytotoxic MTS test, Hep G2; conditions: Homo sapiens, HepG2; Hep G2 cells
[12] = system: HL 60; test: cytotoxic MTS test, HL 60; conditions: Homo sapiens; HL 60 cells
[13] = system: CEM (T-lymfoblastic leukemia); test: cytotoxic MTS test, CEM; conditions: Homo sapiens, CCRF-CEM; CEM cells
Text: as §1

[14] = system: HeLa; test: cytotoxic MTS test, HeLa; conditions: Homo sapiens; HeLa cells

Structure (SMILES)	IC50 [1] [µM]	IC50 [2] [µM]	IC50 [3] [µM]	IC50 [4] [µM]	IC50 [5] [µM]	IC50 [6] [µM]	IC50 [7] [µM]	IC50 [8] [µM]	IC50 [9] [µM]	IC50 [10] [µM]	IC50 [11] [µM]	IC50 [12] [µM]	IC50 [13] [µM]	IC50 [14] [µM]
OC[C@H]1O[C@@H](n2c3cnccc3c3c(-c4ccco4)ncnc32)[C@H](O)[C@@H]1O [Compound 2f, 4-(furan-2-yl)-9-(β-D-ribofuranosyl)-9H-pyrido[4′,3′:4,5]pyrrolo[2,3-d]pyrimidine]	> 50	> 50	> 50	> 50	> 50	> 50	> 50	> 50	> 50	> 50	> 50	> 50	> 50	> 50
OC[C@H]1O[C@@H](n2c3cnccc3c3c(-c4ccoc4)ncnc32)[C@H](O)[C@@H]1O [Compound 2g, 4-(furan-3-yl)-9-(β-D-ribofuranosyl)-9H-pyrido[4′,3′:4,5]pyrrolo[2,3-d]pyrimidine]	> 50	> 50	> 50	> 50	> 50	> 50	> 50	> 50	> 50	> 50	> 50	> 50	> 50	> 50
OC[C@H]1O[C@@H](n2c3cnccc3c3c(-c4ccsc4)ncnc32)[C@H](O)[C@@H]1O [Compound 2h, 4-(thiophen-3-yl)-9-(β-D-ribofuranosyl)-9H-pyrido[4′,3′:4,5]pyrrolo[2,3-d]pyrimidine]	> 50	> 50	> 50	> 50	> 50	> 50	> 50	> 50	> 50	> 50	> 50	> 50	> 50	> 50
OC[C@H]1O[C@@H](n2c3cnccc3c3c(-c4cc5ccccc5o4)ncnc32)[C@H](O)[C@@H]1O [Compound 2i, 4-(benzofuran-2-yl)-9-(β-D-ribofuranosyl)-9H-pyrido[4′,3′:4,5]pyrrolo[2,3-d]pyrimidine]	10 to 25	25 to 50	0.9 to 10	10 to 25	0.9 to 10	10 to 25	10 to 25	10 to 25	10 to 25	10 to 25	> 50	> 50	> 50	> 50
